The values that follow come from patent US11180474B2 (BRISTOL-MYERS SQUIBB COMPANY, priority 2016, dated 2021).

As a reminder, the pIC50 is the IC50 on a negative log10 scale, so that one unit is a factor of ten. A high value points to a small IC50.

pIC50: −log10 of the molar value.

Common to all, as to assay type: cell-based
Experiment [1] addresses T1, human TLR7 (Homo sapiens, UniProt Q9NYK1).
T1 construct: host or cells: HEK-Blue cells
T1 sequence (Q9NYK1 27-1049): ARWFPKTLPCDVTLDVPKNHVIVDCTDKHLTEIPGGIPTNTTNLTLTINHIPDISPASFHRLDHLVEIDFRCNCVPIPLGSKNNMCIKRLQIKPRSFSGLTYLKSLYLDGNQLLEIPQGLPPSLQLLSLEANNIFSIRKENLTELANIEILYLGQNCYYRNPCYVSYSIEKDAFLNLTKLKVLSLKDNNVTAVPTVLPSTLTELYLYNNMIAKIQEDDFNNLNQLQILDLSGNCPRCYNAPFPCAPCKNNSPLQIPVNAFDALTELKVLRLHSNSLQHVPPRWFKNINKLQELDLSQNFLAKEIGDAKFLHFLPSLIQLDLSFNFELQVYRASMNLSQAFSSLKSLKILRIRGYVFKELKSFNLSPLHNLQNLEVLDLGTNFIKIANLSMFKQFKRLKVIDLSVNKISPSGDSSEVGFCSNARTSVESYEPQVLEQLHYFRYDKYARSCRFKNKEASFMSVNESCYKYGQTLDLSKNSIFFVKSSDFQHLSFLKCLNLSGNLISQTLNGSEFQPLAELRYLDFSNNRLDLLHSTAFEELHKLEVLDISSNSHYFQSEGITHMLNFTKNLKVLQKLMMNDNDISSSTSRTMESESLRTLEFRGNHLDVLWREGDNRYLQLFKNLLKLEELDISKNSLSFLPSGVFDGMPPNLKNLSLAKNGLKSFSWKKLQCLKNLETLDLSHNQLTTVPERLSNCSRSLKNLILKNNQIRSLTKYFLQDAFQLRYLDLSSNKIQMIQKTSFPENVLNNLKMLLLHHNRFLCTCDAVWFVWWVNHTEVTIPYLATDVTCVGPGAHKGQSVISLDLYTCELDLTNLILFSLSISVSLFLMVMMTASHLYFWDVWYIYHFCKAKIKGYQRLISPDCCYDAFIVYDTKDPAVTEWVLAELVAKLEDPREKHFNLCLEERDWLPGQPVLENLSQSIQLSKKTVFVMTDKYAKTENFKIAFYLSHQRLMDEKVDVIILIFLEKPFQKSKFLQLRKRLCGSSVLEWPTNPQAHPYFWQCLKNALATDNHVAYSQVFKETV
Nature of the experiment: TLR7 inhibition reporter assay (HEK-Blue cells, SEAP reporter, gardiquimod stimulation). The following applies: HEK-Blue cells overexpressing human TLR7, gardiquimod 7.5 μM. An outline of the steps: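 Dose-response testing from 0.05 nM to 50 μM final was done on reporter cells for 22 hours at 37° C. Secreted SEAP was then detected, and inhibition was calculated as percent reduction of the agonist-plus-DMSO signal compared with wells given a known inhibitor.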

In experiment [2] the target is T2, human TLR8 (Homo sapiens, UniProt Q9NR97).
T2 construct: host or cells: HEK-Blue cells
T2 sequence (Q9NR97 27-1041): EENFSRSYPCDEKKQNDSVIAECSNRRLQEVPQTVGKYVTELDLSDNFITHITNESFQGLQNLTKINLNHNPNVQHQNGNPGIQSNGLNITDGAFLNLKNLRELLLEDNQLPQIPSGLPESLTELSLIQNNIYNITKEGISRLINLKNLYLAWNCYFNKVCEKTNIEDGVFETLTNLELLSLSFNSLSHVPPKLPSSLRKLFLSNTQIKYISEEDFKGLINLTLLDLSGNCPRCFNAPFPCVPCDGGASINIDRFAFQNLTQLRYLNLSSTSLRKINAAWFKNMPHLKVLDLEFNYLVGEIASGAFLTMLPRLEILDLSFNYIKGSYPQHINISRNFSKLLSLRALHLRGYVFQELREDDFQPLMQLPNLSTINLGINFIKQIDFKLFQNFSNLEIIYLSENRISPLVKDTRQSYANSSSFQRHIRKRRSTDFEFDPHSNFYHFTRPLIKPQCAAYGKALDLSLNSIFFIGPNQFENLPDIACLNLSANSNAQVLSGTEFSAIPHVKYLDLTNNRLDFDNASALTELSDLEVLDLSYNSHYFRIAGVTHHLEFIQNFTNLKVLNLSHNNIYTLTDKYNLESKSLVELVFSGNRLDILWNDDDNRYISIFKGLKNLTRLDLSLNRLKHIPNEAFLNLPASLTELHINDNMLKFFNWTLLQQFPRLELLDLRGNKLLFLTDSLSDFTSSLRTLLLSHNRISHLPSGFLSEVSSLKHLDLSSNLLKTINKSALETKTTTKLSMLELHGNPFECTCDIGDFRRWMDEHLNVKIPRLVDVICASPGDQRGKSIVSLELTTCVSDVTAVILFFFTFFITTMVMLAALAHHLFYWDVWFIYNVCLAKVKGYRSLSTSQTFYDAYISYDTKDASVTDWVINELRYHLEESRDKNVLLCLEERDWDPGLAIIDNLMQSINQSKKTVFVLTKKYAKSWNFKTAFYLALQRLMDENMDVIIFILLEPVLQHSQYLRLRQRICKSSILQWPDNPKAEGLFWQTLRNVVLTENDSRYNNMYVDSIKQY
Nature of the experiment: TLR8 inhibition reporter assay (HEK-Blue cells, SEAP reporter, R848 stimulation). Particulars: HEK-Blue cells overexpressing human TLR8, R848 15.9 μM. On the procedure:
TLR7/8/9 Inhibition Reporter Assays
Briefly, cells are seeded into Greiner 384 well plates (15000 cells per well for TLR7, 20,000 for TLR8 and 25,000 for TLR9) and then treated with test compounds in DMSO to yield a final dose response concentration range of 0.05 nM-50 μM. […] After a 22 hour incubation at 37° C., 5% CO2, SEAP levels are determined with the addition of HEK-Blue™ Detection reagent (Invivogen), a cell culture medium that allows for detection of SEAP, according to manufacturer's specifications. The percent inhibition is determined as the % reduction in the HEK-Blue signal present in wells treated with agonist plus DMSO alone compared to wells treated with a known inhibitor.
In general terms: Reporter assays use an easily measured gene product as a stand-in for the process of interest.

For experiment [3], the target named is T3, human TLR9 (Homo sapiens, UniProt Q9NR96).
T3 construct: host or cells: HEK-Blue cells
T3 sequence (Q9NR96 26-1032): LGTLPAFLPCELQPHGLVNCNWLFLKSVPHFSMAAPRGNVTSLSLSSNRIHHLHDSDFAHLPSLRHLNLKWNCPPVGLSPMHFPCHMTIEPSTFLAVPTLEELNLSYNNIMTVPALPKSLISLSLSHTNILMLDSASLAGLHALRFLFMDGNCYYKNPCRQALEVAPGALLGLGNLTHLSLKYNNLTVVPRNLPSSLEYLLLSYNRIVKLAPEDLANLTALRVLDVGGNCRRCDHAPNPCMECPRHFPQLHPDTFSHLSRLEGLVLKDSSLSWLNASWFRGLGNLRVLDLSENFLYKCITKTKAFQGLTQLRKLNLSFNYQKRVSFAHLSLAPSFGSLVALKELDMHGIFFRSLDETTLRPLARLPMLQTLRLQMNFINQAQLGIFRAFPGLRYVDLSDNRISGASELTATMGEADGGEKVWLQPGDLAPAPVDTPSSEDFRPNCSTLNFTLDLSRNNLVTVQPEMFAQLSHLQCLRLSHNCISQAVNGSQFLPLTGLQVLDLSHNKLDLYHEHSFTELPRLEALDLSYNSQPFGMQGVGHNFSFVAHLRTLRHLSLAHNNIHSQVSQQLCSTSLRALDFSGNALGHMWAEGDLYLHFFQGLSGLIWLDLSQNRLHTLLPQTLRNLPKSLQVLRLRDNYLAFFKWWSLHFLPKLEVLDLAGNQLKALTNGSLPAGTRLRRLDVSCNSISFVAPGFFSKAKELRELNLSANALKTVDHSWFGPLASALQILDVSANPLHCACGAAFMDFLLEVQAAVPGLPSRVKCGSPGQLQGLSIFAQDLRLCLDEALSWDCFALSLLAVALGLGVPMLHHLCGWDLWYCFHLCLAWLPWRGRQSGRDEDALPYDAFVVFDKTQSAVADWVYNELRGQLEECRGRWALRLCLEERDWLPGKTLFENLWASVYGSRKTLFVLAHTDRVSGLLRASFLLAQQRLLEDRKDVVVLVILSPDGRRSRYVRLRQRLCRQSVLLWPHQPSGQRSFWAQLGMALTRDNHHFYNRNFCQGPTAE
Nature of the experiment: TLR9 inhibition reporter assay (HEK-Blue cells, SEAP reporter, ODN2006 stimulation). The following applies: HEK-Blue cells overexpressing human TLR9, ODN2006 5 nM. An outline of the steps:
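Screening used HEK-Blue cells overexpressing one human TLR (7, 8 or 9) and an IFN-β minimal promoter–NF-κB/AP-1 SEAP construct. Stimulation lasted 22 h at 37 °C with receptor-specific agonist: gardiquimod, R848 or ODN2006 at 7.5 μM, 15.9 μM and 5 nM.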

Regarding `COc1ccc(-c2[nH]c3ccc(C4CCN(C(=O)COC5CCN(C)CC5)CC4)cc3c2C(C)C)cc1OC` [Example 315, 1-(4-(2-(3,4-dimethoxyphenyl)-3-isopropyl-1H-indol-5-yl)piperidin-1-yl)-2-((1-methylpiperidin-4-yl)oxy)ethan-1-one], the pIC50 is 6.27 in experiment [1] and 6.08 in experiment [2].

For the compound `CNCCN1CCC(c2ccc3[nH]c(-c4ccc(OC)c(OC)c4)c(C#N)c3c2)CC1` [Example 118, 2-(3,4-dimethoxyphenyl)-5-(1-(2-(methylamino)ethyl)piperidin-4-yl)-1H-indole-3-carbonitrile-di-trifluoroacetic acid], the pIC50 is 6.59 in experiment [3] and 6.46 in experiment [2].

`CNCCN1CCC(c2ccc3[nH]c(-c4ccc(OC)c(OC)c4)c(Cl)c3c2)CC1` [Example 119]: the figures for the negative-log IC50 (pIC50) in experiment [3] and in experiment [2] were 6.39 and 6.26, respectively.

For `CCc1c(-c2ccc(OC)c(OC)c2)[nH]c2ccc(C3CCN(C4CCN(Cc5nccn5C)CC4)CC3)cc12` [Example 136, 2-(3,4-dimethoxyphenyl)-3-ethyl-5-(1′-((1-methyl-1H-imidazol-2-yl)methyl)-[1,4′-bipiperidin]-4-yl)-1H-indole], the pIC50 was 6.13 in experiment [1] and 6.48 in experiment [2].

For the compound `COc1ccc(-c2[nH]c3ccc(C4CCN(Cc5ccncc5)CC4)cc3c2C)cc1OC` [Example 20, 2-(3,4-dimethoxyphenyl)-3-methyl-5-(1-(pyridin-4-ylmethyl)piperidin-4-yl)-1H-indole], the pIC50 is 5.76 in experiment [3] and 6.01 in experiment [2].

Compound `COc1ccc(-c2[nH]c3ccc(C4CCN(Cc5[nH]cnc5C)CC4)cc3c2C(C)C)cc1OC` [Example 267, 2-(3,4-dimethoxyphenyl)-3-isopropyl-5-(1-((4-methyl-1H-imidazol-5-yl)methyl)piperidin-4-yl)-1H-indole] had a negative logarithm of the IC50 (pIC50) in experiment [2] of 7.60.

For the compound `CCc1c(-c2ccc(OC)c(OC)c2)[nH]c2ccc(C3CCN(C4CCN(Cc5ccoc5)CC4)CC3)cc12` [Example 146, 2-(3,4-dimethoxyphenyl)-3-ethyl-5-(1′-(furan-3-ylmethyl)-[1,4′-bipiperidin]-4-yl)-1H-indole], the pIC50 in experiment [1] was 6.23; in experiment [2], 6.75.

Consider `CCc1c(-c2ccc(OC)c(OC)c2)[nH]c2ccc(C3CCN(C4CCN(Cc5c(C)[nH]c6ccccc56)CC4)CC3)cc12` [Example 129, 2-(3,4-dimethoxyphenyl)-3-ethyl-5-(1′-((2-methyl-1H-indol-3-yl)methyl)-[1,4′-bipiperidin]-4-yl)-1H-indole], for which the values for the pIC50 in experiment [1] and in experiment [2] were 5.94 and 6.42, respectively.

`COc1ccc(-c2[nH]c3ccc(C4CCN(Cc5cccc(C(F)(F)F)c5)CC4)cc3c2C(C)C)cc1OC` [Example 269, 2-(3,4-dimethoxyphenyl)-3-isopropyl-5-(1-(3-(trifluoromethyl)benzyl)piperidin-4-yl)-1H-indole]: the pIC50 was 4.73 in experiment [3] and 5.57 in experiment [1].

For `COc1ccc(-c2[nH]c3ccc(C4CCN(Cc5csnn5)CC4)cc3c2C)cc1OC` [Example 41, 4-((4-(2-(3,4-dimethoxyphenyl)-3-methyl-1H-indol-5-yl)piperidin-1-yl)methyl)-1,2,3-thiadiazole], the pIC50 in experiment [3] was 5.42; in experiment [1] it was 5.63.
